{"source": "patent US5059588A", "about": "“Methods and compositions for healing bone using Gly His Lys: Copper” (ProCyte Corporation, Incorporated, priority 1989, dated 1991)", "key": {"[1]": {"system": "bone models implanted in rats", "test": "Granulation tissue formation in stainless steel chambers (bone healing model) implanted subcutaneously in rats", "format": "in vivo, rat", "conditions": "for PROTEIN: relative to BSA", "description": "The subcutaneous implantation of stainless steel chambers in rats provides a reproducible models to monitor the healing of bone. This model in many ways mimics the early events in the formation of granulation tissue found in fractures or other types of injury to bone. Implantation of these chambers triggers a series of responses which reflect the series of phases involved in bone healing--fibrin clot formation, infiltration of white cells, collagen synthesis, and new blood vessel formation.\nThe assay involves the implantation of two stainless steel chambers (1×2.5 cm cylindrical 312 SS, 20 mesh, with Teflon end caps) on each side of the dorsal midline of rats. After one week to allow for encapsulation of the chambers, one chamber on each rat was injected with 0.2 ml of a 10 mg/ml solution of GHL-Cu and the other with the same volume of saline. Injections are made on days […], 7, 8, 12, 13, 15 and 19. The chambers were removed on day 15 and day 29.\nThe chambers were lyophilized and the interior contents removed for biochemical analysis. The biochemical parameters examined include the total dry weight, protein content, angiogenesis (alkaline phosphatase activity), and collagen content (hydroxyproline content after acid hydrolysis). Significant increases were found in all the biochemical parameters tested when compounds of the present invention were used as compared to controls.\nProtein content was determined by the method of Lowry (Lowry et al., J. Biol. Chem. 193:265-275, 1951) using Bovine Serum Albumin (BSA) as a standard. Angiogenesis was determined by measuring the amount of alkaline phosphatase activity using p-nitrophenyl phosphate as a substrate (Lyles et al., C. Biochem. Pharm. 33:2569-2574, 1984). The collagen content was determined by acid hydrolysis and a colorimetric assay for hydroxyproline (Bergman et al., R. Clin. Chim. Acta 27:347-349, 1970), an amino acid specific for collagen.\nThe total protein is expressed as mg protein (relative to BSA) per chamber, the angiogenesis as alkaline phosphatase (AP) units per chamber, where one unit=the amount of homogenate which causes an increase in absorbance at 405 nm of 1.0 per min., and the hydroxyproline (HP, Collagen Content) as μg HP per chamber. Comparison with control data is made by determining the ratio, treated/control (T/C) for each parameter."}, "[2]": {"system": "drill holes in bone (femur) of male rats", "test": "Healing of drill-hole defects in the femur of rats", "format": "in vivo, rat", "conditions": "for bone healing activity: general statement", "description": "In one representative study, male rats weighing approximately 350-400 grams received drill holes in bone which were then treated with pharmaceutical preparations containing GHL-Cu.\nMore specifically, on the day of surgery (Day 0), animals were sedated with pentobarbital (I.P., 35 mg/kg). The hair was clipped from the left rear upper limb, and the area was prepped in a sterile fashion. Using a #15 blade, a 2 cm incision was made on the lateral surface of the upper limb following the approximate location of the femur, extending from just below the crest of the ilium. The tensor fasciae latae muscle was exposed and incised parallel to the muscle filers (1 cm incision). Careful retraction of the muscle provided exposure of the vastus lateralis muscle overlying the femur. The approach to the femur was completed upon incision and retraction of this muscle. This provided exposure of 1 cm of the lateral and ventral surfaces of bone. Using a periosteal elevator, the surface of the femur was cleaned of periosteum. At this point, very little bleeding had been encountered. Using a Dremel drill fitted with a 1 mm diameter cutting burr, a hole was drilled in the femur to a depth of approximately 0.75 mm. Little bleeding was evident except in the rare case of marrow penetration. The area was irrigated and hemostasis achieved. At this point, a pharmaceutical preparation of the compositions of the present invention was applied to the exposed bone surface. The muscle was closed in layers using chromic suture, and the skin was closed with stainless steel wound clips. Structure and function of the muscles was intact following surgery, and very little, if any, morbidity was associated with the surgical procedure.\nAfter 7 to 14 days, the animals were terminated and their femurs removed. Evidence of bone growth was determined from gross visualization of the defect using a Wild dissecting scope, and from subsequent histological preparations (decalcification, paraffin embedding, and Trichrome staining).\nResults at 12 to 14 days following surgery utilizing pharmaceutical preparation B to accelerate the bone healing process are summarized in Table 2. Controls consisted of bones without treatment.\nIn a second study, defects were created in bones and pharmaceutical preparation E applied to the exposed bone in the same manner as described in Example 9."}}, "note": "Several values for one entry are separate records, joined by “and”; a condition that tells them apart may be missing. Equal values may be shown once."}
{"substance": "glycyl-L-histidyl-L-lysine:copper(II) [GHL-Cu]", "values": [{"measurement": "ANGIOGENESIS (alkaline phosphatase)", "setting": "[1]; day 15", "result": "6.5 ± 3.2", "unit": "AP units/chamber"}, {"measurement": "COLLAGEN (hydroxyproline)", "setting": "[1]; day 15", "result": "243 ± 215", "unit": "μg HP/chamber"}, {"measurement": "DRY WEIGHT", "setting": "[1]; day 15, chamber injected with 0.2 ml of 10 mg/ml solution", "result": "92 ± 46", "unit": "mg"}, {"measurement": "T/C dry weight", "setting": "[1]; day 15, ratio treated/control", "result": "~ 2 and 2.2"}, {"measurement": "T/C protein", "setting": "[1]; day 15, ratio treated/control", "result": "~ 2 and 2.0"}, {"measurement": "PROTEIN", "setting": "[1]; day 15", "result": "69 ± 32", "unit": "mg/chamber"}, {"measurement": "ANGIOGENESIS (alkaline phosphatase)", "setting": "[1]; day 29", "result": "20.3 ± 10.0", "unit": "AP units/chamber"}, {"measurement": "COLLAGEN (hydroxyproline)", "setting": "[1]; day 29", "result": "1849 ± 546", "unit": "μg HP/chamber"}, {"measurement": "DRY WEIGHT", "setting": "[1]; day 29", "result": "165 ± 38", "unit": "mg"}, {"measurement": "T/C angiogenesis", "setting": "[1]; day 29, ratio treated/control", "result": 3.2}, {"measurement": "T/C collagen", "setting": "[1]; day 29, ratio treated/control", "result": 1.9}, {"measurement": "T/C dry weight", "setting": "[1]; day 29, ratio treated/control", "result": 1.7}, {"measurement": "T/C protein", "setting": "[1]; day 29, ratio treated/control", "result": 1.4}, {"measurement": "PROTEIN", "setting": "[1]; day 29", "result": "77 ± 19", "unit": "mg/chamber"}, {"measurement": "histology, periosteal layer (FIG. 6)", "setting": "[2]; X40, Trichrome stain, versus placebo", "result": "better developed and continuous"}, {"measurement": "histology, new bone (FIG. 7)", "setting": "[2]; X 63, Trichrome stain, versus placebo", "result": "increase in density of new bone"}, {"measurement": "gross appearance of bone defect (FIG. 5)", "setting": "[2]; day 7, versus placebo gel", "result": "influx of bony calcification and granulation tissue"}, {"measurement": "bone healing activity", "setting": "[2]", "result": "have shown bone healing activity"}]}
{"substance": "L-lysyl-L-histidyl-glycine:copper(II) [LHG-Cu]", "values": [{"measurement": "bone healing activity", "setting": "[2]", "result": "have shown bone healing activity"}]}
